From patent publication US7078556B2, “Antibiotics Cyan-416 A, Cyan-416 B, Cyan-416 C, Cyan-416 D and Cyan-416 E, and ester derivatives of Cyan-416 B” (Wyeth Holdings Corporation, priority 2002, dated 2006)
Converted amounts (≈) assume the structure as drawn. Read-outs that look alike come from different tables or passages of the source.

Legend:
Experiment in all cases: MIC by broth dilution
Type in all cases: cell-based
[1] = tested on: Enterococcus faecalis GC 842; details: GC842, Table 1, 18 hours at 35° C.
Protocol: (§1) The minimum inhibitory concentration (MIC), the lowest concentration of the antibiotic which inhibits growth of the test organism, is determined by the broth dilution method using Muller-Hinton II […] (Baltimore Biological Laboratories) following the recommendations of the National Committee for Clinical Laboratory Standards [Methods for dilution antimicrobial susceptibility tests for bacteria that grow aerobically. Approved standard M7-A2. National Committee for Clinical Laboratory Standards, Villanova, Pa].
(§2) An inoculum level of 5×10^5 CFU/ml, and a range of antibiotic concentrations (64–0.06 μg/ml) is used. The MIC is determined after the microtiter plates are incubated for 18 hours at 35° C. in an ambient air incubator. The test organisms comprise a spectrum of the Gram-positive bacteria Staphylococcus aureus, Streptococcus pneumoniae, and Enterococcus sp., the Gram-negative bacteria Escherichia coli, and the yeast Candida albicans. These organisms include recent clinical isolates that are resistant to methicillin and vancomycin. MIC data of Cyan-416 A–E are listed in Table 1 and MIC data of ester derivatives of Cyan-416 B (Formula I) are listed in Table 2.

[2] = tested on: Candida albicans GC 3066; details: GC3066, 18 h
Protocol: as §1, §2

[3] = tested on: Escherichia coli GC 2203; details: GC2203, 18 h
Protocol: as §1, §2

[4] = tested on: Escherichia coli GC 4560 (imp)
Protocol: as §1, §2

[5] = tested on: Staphylococcus aureus GC 4536; details: GC4536, Table 1, 18 hours at 35° C.
Protocol: as §1, §2

[6] = tested on: Staphylococcus aureus GC 1131
Protocol: as §1, §2

[7] = tested on: Enterococcus faecalis GC 2242
Protocol: as §1, §2

[8] = tested on: Enterococcus faecalis GC 4555
Protocol: as §1, §2

[9] = tested on: Staphylococcus aureus GC 2216
Protocol: as §1, §2

[10] = tested on: Pseudomonas aeruginosa GC 2214; details: GC2214, Table 1, 18 hours at 35° C.
[11] = tested on: Streptococcus pneumoniae GC 6242; details: GC6242, Table 2, 18 hours at 35° C.
Protocol: as §1, §2

[12] = tested on: Enterococcus faecium GC 2243; details: GC2243, Table 2, 18 hours at 35° C.
Protocol: as §1, §2

[13] = tested on: Staphylococcus aureus GC 4541; details: GC4541, Table 2, 18 hours at 35° C.
Protocol: as §1, §2

[14] = tested on: Streptococcus pneumoniae GC 1894; details: GC1894, Table 2, 18 hours at 35° C.
Protocol: as §1, §2

[15] = tested on: Enterococcus faecium 4558; details: Table 2, 18 hours at 35° C.
Protocol: as §1, §2

[16] = tested on: Enterococcus faecium GC 4556; details: GC4556, Table 2, 18 hours at 35° C.
Protocol: as §1, §2

[17] = tested on: Staphylococcus aureus GC 4543; details: GC4543, Table 2, 18 hours at 35° C.
Protocol: as §1, §2

[18] = tested on: Enterococcus faecalis GC 6189; details: GC6189, Table 2, 18 hours at 35° C.
Protocol: as §1, §2

[19] = tested on: Staphylococcus haemolyticus GC 4547; details: GC4547, Table 2, 18 hours at 35° C.
Protocol: as §1, §2

[20] = Table 1, Escherichia coli GC 2203, 18 hours at 35° C.
[21] = GC1131, Table 1, 18 hours at 35° C., read-out: MIC
[22] = GC2242, Table 1, 18 hours at 35° C., read-out: MIC
[23] = GC4555, Table 1, 18 hours at 35° C., read-out: MIC
[24] = GC2216, Table 1, 18 hours at 35° C., read-out: MIC
[25] = Table 2, Escherichia coli coli GC 2203, 18 hours at 35° C.
[26] = GC1131, Table 2, 18 hours at 35° C., read-out: MIC
[27] = GC2242, Table 2, 18 hours at 35° C., read-out: MIC
[28] = GC4555, Table 2, 18 hours at 35° C., read-out: MIC
[29] = GC2216, Table 2, 18 hours at 35° C., read-out: MIC

Structure (SMILES) | MIC [1] | MIC ([2]; Table 1, 18 hours at 35° C.) | MIC [3, 20] | MIC ([4]; Escherichia coli, 18 h) | MIC [5] | MIC [6, 21] | MIC [7, 22] | MIC [8, 23] | MIC [9, 24] | MIC [10] | MIC ([2]; Table 2, 18 hours at 35° C.) | MIC [11] | MIC [12] | MIC [13] | MIC [14] | MIC [3, 25] | MIC [15] | MIC [16] | MIC [17] | MIC [18] | further results
COC(=O)c1c(O)ccc(O)c1C(=O)c1c(O)cc(C)c(Cc2c(C)cc(O)c(C(=O)c3c(O)ccc(O)c3C(=O)OC)c2O)c1O [Example 4b, Cyan-416 E] | 64 µg/mL (≈ 98.7 µM) | 64 µg/mL (≈ 98.7 µM) | > 64 µg/mL | 64 µg/mL (≈ 98.7 µM) | 64 µg/mL (≈ 98.7 µM) | 64 µg/mL (≈ 98.7 µM) | 64 µg/mL (≈ 98.7 µM) | 64 µg/mL (≈ 98.7 µM) | 64 µg/mL (≈ 98.7 µM) | 64 µg/mL (≈ 98.7 µM) | – | – | – | – | – | – | – | – | – | – | –
CCCCCC(=O)O[C@H]1c2cc(C)cc(O)c2C(O)=C2C(=O)[C@H]3C=C[C@]21Cc1cc(O)c(C(=O)c2c(O)ccc(O)c2C(=O)OC)c(O)c13 [Example 9, Cyan-416 B hexanoate] | – | – | – | 8 µg/mL (≈ 11.9 µM) | – | – | – | – | – | – | > 128 µg/mL | 8 µg/mL (≈ 11.9 µM) | 4 µg/mL (≈ 5.96 µM) | 4 µg/mL (≈ 5.96 µM) | 8 µg/mL (≈ 11.9 µM) | > 128 µg/mL | 2 µg/mL (≈ 2.98 µM) | 4 µg/mL (≈ 5.96 µM) | 4 µg/mL (≈ 5.96 µM) | 4 µg/mL (≈ 5.96 µM) | MIC [6, 26]: 4 µg/mL (≈ 5.96 µM); MIC [7, 27]: 4 µg/mL (≈ 5.96 µM); MIC [8, 28]: 4 µg/mL (≈ 5.96 µM); MIC [19]: 4 µg/mL (≈ 5.96 µM); MIC [9, 29]: 4 µg/mL (≈ 5.96 µM)
COC(=O)c1c(O)ccc(O)c1C(=O)c1c(O)cc2c(c1O)[C@@H]1C=C[C@@]3(C2)[C@@H](OC(C)=O)c2cc(C)cc(O)c2C(=O)C3(O)C1=O (stereo partly shown) [Example 3c, Cyan-416 C] | 32 µg/mL (≈ 50.7 µM) | > 64 µg/mL | > 64 µg/mL | > 64 µg/mL | 32 µg/mL (≈ 50.7 µM) | 32 µg/mL (≈ 50.7 µM) | 32 µg/mL (≈ 50.7 µM) | 64 µg/mL (≈ 101 µM) | 32 µg/mL (≈ 50.7 µM) | > 64 µg/mL | – | – | – | – | – | – | – | – | – | – | –
CCCCC(=O)O[C@H]1c2cc(C)cc(O)c2C(O)=C2C(=O)[C@H]3C=C[C@]21Cc1cc(O)c(C(=O)c2c(O)ccc(O)c2C(=O)OC)c(O)c13 [Example 8, Cyan-416 B pentanoate] | – | – | – | 8 µg/mL (≈ 12.2 µM) | – | – | – | – | – | – | > 128 µg/mL | 8 µg/mL (≈ 12.2 µM) | 4 µg/mL (≈ 6.09 µM) | 4 µg/mL (≈ 6.09 µM) | 8 µg/mL (≈ 12.2 µM) | > 128 µg/mL | 2 µg/mL (≈ 3.05 µM) | 4 µg/mL (≈ 6.09 µM) | 4 µg/mL (≈ 6.09 µM) | 4 µg/mL (≈ 6.09 µM) | MIC [6, 26]: 4 µg/mL (≈ 6.09 µM); MIC [7, 27]: 4 µg/mL (≈ 6.09 µM); MIC [8, 28]: 4 µg/mL (≈ 6.09 µM); MIC [19]: 4 µg/mL (≈ 6.09 µM); MIC [9, 29]: 4 µg/mL (≈ 6.09 µM)
COC(=O)c1c(O)ccc(O)c1C(=O)c1c(O)cc2c(c1O)[C@@H]1C=C[C@]3(C2)C(=C(O)c2c(O)cc(C)cc2[C@@H]3OC(C)=O)C1=O [Example 3a, Cyan-416 A] | 16 µg/mL (≈ 26 µM) | > 64 µg/mL | > 64 µg/mL | 32 µg/mL (≈ 52.1 µM) | 8 µg/mL (≈ 13 µM) | 8 µg/mL (≈ 13 µM) | 16 µg/mL (≈ 26 µM) | 16 µg/mL (≈ 26 µM) | 8 µg/mL (≈ 13 µM) | > 64 µg/mL | > 128 µg/mL | 8 µg/mL (≈ 13 µM) | 8 µg/mL (≈ 13 µM) | 16 µg/mL (≈ 26 µM) | 8 µg/mL (≈ 13 µM) | > 128 µg/mL | 8 µg/mL (≈ 13 µM) | 16 µg/mL (≈ 26 µM) | 8 µg/mL (≈ 13 µM) | 16 µg/mL (≈ 26 µM) | MIC ([4]; Table 2, Escherichia coli GC 4560 (imp), 18 hours at 35° C.): 32 µg/mL (≈ 52.1 µM); MIC ([6]; Table 2, 18 hours at 35° C.): 8 µg/mL (≈ 13 µM); MIC ([7]; Table 2, 18 hours at 35° C.): 16 µg/mL (≈ 26 µM); MIC ([8]; Table 2, 18 hours at 35° C.): 16 µg/mL (≈ 26 µM); MIC [19]: 16 µg/mL (≈ 26 µM); MIC ([9]; Table 2, 18 hours at 35° C.): 8 µg/mL (≈ 13 µM)
COC(=O)c1c(O)ccc(O)c1C(=O)c1c(O)cc2c(c1O)[C@@H]1C=C[C@]3(C2)C(=C(O)c2c(O)cc(C)cc2[C@@H]3OC(=O)C(C)C)C1=O [Example 7, Cyan-416 B isobutyrate] | – | – | – | 8 µg/mL (≈ 12.4 µM) | – | – | – | – | – | – | > 128 µg/mL | 16 µg/mL (≈ 24.9 µM) | 8 µg/mL (≈ 12.4 µM) | 2 µg/mL (≈ 3.11 µM) | 8 µg/mL (≈ 12.4 µM) | > 128 µg/mL | 2 µg/mL (≈ 3.11 µM) | 4 µg/mL (≈ 6.22 µM) | 4 µg/mL (≈ 6.22 µM) | 4 µg/mL (≈ 6.22 µM) | MIC [6, 26]: 4 µg/mL (≈ 6.22 µM); MIC [7, 27]: 4 µg/mL (≈ 6.22 µM); MIC [8, 28]: 4 µg/mL (≈ 6.22 µM); MIC [19]: 4 µg/mL (≈ 6.22 µM); MIC [9, 29]: 4 µg/mL (≈ 6.22 µM)
COC(=O)c1c(O)ccc(O)c1C(=O)c1c(O)cc2c(c1O)[C@@H]1C=C[C@]3(C2)C(=C(O)c2c(O)cc(C)cc2[C@@H]3O)C1=O [Example 3b, Cyan-416 B] | 64 µg/mL (≈ 112 µM) | > 64 µg/mL | > 64 µg/mL | 64 µg/mL (≈ 112 µM) | 32 µg/mL (≈ 55.9 µM) | 32 µg/mL (≈ 55.9 µM) | 32 µg/mL (≈ 55.9 µM) | 64 µg/mL (≈ 112 µM) | 32 µg/mL (≈ 55.9 µM) | > 64 µg/mL | – | – | – | – | – | – | – | – | – | – | –
CCCC(=O)O[C@H]1c2cc(C)cc(O)c2C(O)=C2C(=O)[C@H]3C=C[C@]21Cc1cc(O)c(C(=O)c2c(O)ccc(O)c2C(=O)OC)c(O)c13 [Example 6, Cyan-416 B butyrate] | – | – | – | 16 µg/mL (≈ 24.9 µM) | – | – | – | – | – | – | > 128 µg/mL | 32 µg/mL (≈ 49.8 µM) | 16 µg/mL (≈ 24.9 µM) | 8 µg/mL (≈ 12.4 µM) | 16 µg/mL (≈ 24.9 µM) | > 128 µg/mL | 8 µg/mL (≈ 12.4 µM) | 8 µg/mL (≈ 12.4 µM) | 8 µg/mL (≈ 12.4 µM) | 16 µg/mL (≈ 24.9 µM) | MIC [6, 26]: 8 µg/mL (≈ 12.4 µM); MIC [7, 27]: 8 µg/mL (≈ 12.4 µM); MIC [8, 28]: 16 µg/mL (≈ 24.9 µM); MIC [19]: 16 µg/mL (≈ 24.9 µM); MIC [9, 29]: 8 µg/mL (≈ 12.4 µM)
COC(=O)c1c(O)ccc(O)c1C(=O)c1c(O)cc(C)cc1O [Example 4a, Cyan-416 D] | 64 µg/mL (≈ 201 µM) | > 64 µg/mL | > 64 µg/mL | 64 µg/mL (≈ 201 µM) | 64 µg/mL (≈ 201 µM) | 64 µg/mL (≈ 201 µM) | 32 µg/mL (≈ 101 µM) | 64 µg/mL (≈ 201 µM) | 64 µg/mL (≈ 201 µM) | > 64 µg/mL | – | – | – | – | – | – | – | – | – | – | –
